{"source": "patent US6353019B1", "about": "“Macrocyclic lactones, compositions, and methods of use” (United States of America as represented by the Department …, priority 1997, dated 2002)", "key": {"SNB-19": {"tested_on": "SNB-19", "experiment": "NCI 60 cell-line screen, SNB-19 (Brain)", "assay_type": "cell-based, human", "settings": "averaged, quadruplicate testing, 48 h, SRB", "experimental": "(§1) The NCI screen consists of a panel of 60 different human tumor cell lines against which compounds are tested over a defined range of concentrations to determine the relative degree of growth inhibition or cytotoxicity against each cell line. The design and operation of the screen is such that for each compound tested, both the absolute and relative sensitivities of individual cell lines comprising the screen are sufficiently reproducible that a characteristic profile or “fingerprint” of cellular response is generated. Compounds which are active in the NCI screen show pronounced differential tumor growth-inhibitory and/or cytotoxic effects to the diverse cell lines comprising the 60 cell-line panel. The degree of differential response between the most and least sensitive lines typically may be relatively small (e.g., 2- to 10-fold), or occasionally as great as 3-4 orders of magnitude. […]\n(§2) In the screening assay, each agent is tested over a broad concentration range against every cell line in the panel. […] Test compounds are evaluated at five 10-fold dilutions. […] Optical densities are measured on automated plate readers, followed by computerized data acquisition, processing, storage, and availability for display and analysis. […]"}, "HS-578T": {"tested_on": "HS-578T", "experiment": "NCI 60 cell-line screen, HS-578T (Breast)", "assay_type": "cell-based, human", "settings": "averaged, quadruplicate testing, 48 h, SRB", "experimental": "as §1, §2"}, "[1]": {"tested_on": "panel of 60 different human tumor cell lines", "experiment": "NCI 60 cell-line human tumor screen, whole panel", "assay_type": "cell-based", "experimental": "as §1, §2\nThree additional numbers are printed at the base of each of the three respective mean-graphs. […] The MG-MID is the calculated mean panel GI50, TGI, or LC50. […]"}, "SF-539": {"tested_on": "SF-539", "experiment": "NCI 60 cell-line screen, SF-539 (Brain)", "assay_type": "cell-based, human", "settings": "averaged, quadruplicate testing, 48 h, SRB", "experimental": "as §1, §2"}, "786-0": {"tested_on": "786-0", "experiment": "NCI 60 cell-line screen, 786-0 (Kidney)", "assay_type": "cell-based, human", "settings": "averaged, quadruplicate testing, 48 h, SRB", "experimental": "as §1, §2"}, "NCI-H226": {"tested_on": "NCI-H226", "experiment": "NCI 60 cell-line screen, NCI-H226 (Lung)", "assay_type": "cell-based, human", "settings": "averaged, quadruplicate testing, 48 h, SRB", "experimental": "as §1, §2"}, "RPMI-8226": {"tested_on": "RPMI-8226", "experiment": "NCI 60 cell-line screen, RPMI-8226 (Leukemia)", "assay_type": "cell-based, human", "settings": "averaged, quadruplicate testing, 48 h, SRB", "experimental": "as §1, §2"}, "EKVX": {"tested_on": "EKVX", "experiment": "NCI 60 cell-line screen, EKVX (Lung)", "assay_type": "cell-based, human", "settings": "averaged, quadruplicate testing, 48 h, SRB", "experimental": "as §1, §2"}, "OVCAR-8": {"tested_on": "OVCAR-8", "experiment": "NCI 60 cell-line screen, OVCAR-8 (Ovary)", "assay_type": "cell-based, human", "settings": "averaged, quadruplicate testing, 48 h, SRB", "experimental": "as §1, §2"}, "U251": {"tested_on": "U251", "experiment": "NCI 60 cell-line screen, U251 (Brain)", "assay_type": "cell-based, human", "settings": "averaged, quadruplicate testing, 48 h, SRB", "experimental": "as §1, §2"}, "NCI-H460": {"tested_on": "NCI-H460", "experiment": "NCI 60 cell-line screen, NCI-H460 (Lung)", "assay_type": "cell-based, human", "settings": "averaged, quadruplicate testing, 48 h, SRB", "experimental": "as §1, §2"}, "HT29": {"tested_on": "HT29", "experiment": "NCI 60 cell-line screen, HT29 (Colon)", "assay_type": "cell-based, human", "settings": "averaged, quadruplicate testing, 48 h, SRB", "experimental": "as §1, §2"}}}
{"substance": "salicylihalamide A", "values": [{"measurement": "negative log10 GI50", "setting": "SNB-19", "value": 6.47}, {"measurement": "negative log10 GI50", "setting": "HS-578T", "value": 5.85}, {"measurement": "GI50", "setting": "[1]; mean over the NCI 60 cell-line panel, read-out: mean panel GI50 concentration", "value": "~15", "unit": "nM"}, {"measurement": "range of differential sensitivity among the 60 cell-lines", "setting": "[1]; most vs least sensitive lines of the NCI panel", "value": "greater than or equal to 10^3"}, {"measurement": "negative log10 GI50", "setting": "SF-539", "value": 7.89}, {"measurement": "negative log10 GI50", "setting": "786-0", "value": 7.92}, {"measurement": "negative log10 GI50", "setting": "NCI-H226", "value": 8.80}, {"measurement": "negative log10 GI50", "setting": "RPMI-8226", "value": 7.89}, {"measurement": "negative log10 GI50", "setting": "EKVX", "value": 7.52}, {"measurement": "negative log10 GI50", "setting": "OVCAR-8", "value": 8.43}, {"measurement": "negative log10 GI50", "setting": "U251", "value": 7.57}, {"measurement": "negative log10 GI50", "setting": "NCI-H460", "value": 9.01}, {"measurement": "negative log10 GI50", "setting": "HT29", "value": 8.54}]}
